Results from PubChem BioAssay (NCI).
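In this assay, cells in 96-well plates receive the compound at five concentrations for 48 hours. Endpoints are linearly interpolated between the surrounding concentrations. TGI: total growth inhibition.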

Key:
Experiment in all cases: NCI-60 cell line screen, 48 h
A498 renal = system: A498 renal
BT-549 breast = system: BT-549 breast
DU-145 prostate = system: DU-145 prostate
NCI-H23 lung = system: NCI-H23 lung
NCI-H460 lung = system: NCI-H460 lung
OVCAR-5 ovarian = system: OVCAR-5 ovarian
PC-3 prostate = system: PC-3 prostate
SF-539 CNS = system: SF-539 CNS
MDA-N = system: MDA-N

SMILES	TGI (A498 renal) [µM]	TGI (BT-549 breast) [µM]	TGI (DU-145 prostate) [µM]	TGI (NCI-H23 lung) [µM]	TGI (NCI-H460 lung) [µM]	TGI (OVCAR-5 ovarian) [µM]	TGI (PC-3 prostate) [µM]	TGI (SF-539 CNS) [µM]	TGI (MDA-N) [µM]
COc1ccc(N2CN(C)CSC2=S)cc1	> 100	> 100	> 100	> 100	> 100	> 100	> 100	> 100	
C=CCOC(=O)c1c(C)n([O-])c2cc(Cl)c(Cl)cc2[n+]1=O	62.6	75.3	> 100	30.3	42.3	75.7	> 100	45.7	45.6
O=C1C(C(c2ccc([N+](=O)[O-])cc2)N2CCOCC2)=C(O)C(c2ccccc2)N1c1ccccc1 (stereo not drawn)	> 10	> 10	> 10	> 10	> 10	> 10	> 10	> 10	> 10
Nc1ncnc2c1ncn2C1OC(CO)C(O)C1NS(=O)(=O)c1ccccc1 (stereo not drawn)	> 100	> 100	> 100	> 100	> 100	> 100	> 100	> 100	> 100
Cc1ccc2n(c1)cc(-c1ccc(/C=N/NC(=N)N/N=C/c3ccc(-c4cn5cc(C)ccc5[n+]4C)cc3)cc1)[n+]2C					> 100	> 100	> 100	> 100	> 100
CCOC(=O)CCC(NC(=O)c1ccc(Nc2nc3cc(C(F)(F)F)ccc3nc2C(=O)OCC)cc1)C(=O)OCC (stereo not drawn)		29.8	> 100	39.9	33.9	39.5	21.5	25.2	21.3
O=C(/C=C/c1ccc(OCc2ccccc2)cc1)NCc1ccc(C(=O)NCc2ccccc2)cc1	> 100	> 100	> 100	> 100	> 100	> 100	> 100	> 100	> 100
CC1(C)Oc2ccc3c(=O)cc(-c4cccs4)oc3c2C1C(=O)O (stereo not drawn)	> 100		> 100	> 100		> 100	> 100	> 100	> 100
O=C(NNS(=O)(=O)c1ccc(Br)cc1)c1ccc(Cl)cc1NC(=O)C12CC3CC(CC(C3)C1)C2	29	34.8	33.4	28.2	23.4	34.3	38.6	32.3	32.2
N/C(=N\S(=O)(=O)c1ccc(-c2ccccn2)s1)Nc1ccc(Cl)cc1	25.8	32.6	34.3	33.2	34.8	40.2	27.3	29.7	19.6
CCCCC(=C=C(C)CO)C1CCCN1C(=O)OC(C)(C)C (stereo not drawn)		31.8	34.1	46.8	31.8	39.9	38.1	34.5	34.2
COC(=O)CCCC1(CCCC(=O)OC)CCCCCCCCC(CCCC(=O)OC)(CCCC(=O)OC)C(=O)C1=O	> 100		> 100	47.9	> 100	> 100	53.5	61.3	> 100
C=C1C(=O)[C@]23C[C@H]1C[C@@H](O)[C@H]2[C@]1(COC3=O)[C@@H](OC(C)=O)CC[C@@](C)(COC(C)=O)[C@H]1C=O	> 50	> 50	> 50	> 50	> 50	> 50	> 50		> 50
O=S(c1ccccc1)C1CC2CC3(CCC21O)OCCO3 (stereo not drawn)	> 100		> 100	> 100	> 100	> 100	> 100		> 100
C[C@]12C(=O)C=CCC1=CC[C@@H]1[C@@H]2[C@H]2CC3(O)C(=O)O[C@@]4(C)[C@H]5C[C@@]6(C)[C@@H]7[C@@]2(O)[C@]1(OC[C@H]6C(=O)O5)O[C@]734 (stereo partly drawn)	> 100		> 100	54.6	> 100	> 100	> 100	42.9	> 100
COCCOC(C)C(=O)C(O)S(=O)(=O)O (stereo not drawn)	> 100	> 100	> 100	> 100	> 100	> 100	> 100	> 100	> 100
COc1cc(S(=O)(=O)Nc2ccc(-c3csc(N4C(=O)C(Cl)C4c4cccc(Oc5ccccc5)c4)n3)cc2)ccc1Cl (stereo not drawn)	64.8	81.5	52.1	36.9	> 100	> 100	30.8	29.6	64.7
O=C(CNc1nccs1)Nn1cnc2ccc(S(=O)(=O)Nc3nccs3)cc2c1=O		> 100	> 100	> 100	> 100	> 100	> 100	> 100	> 100
Nc1nc(Nc2ccc(Cl)cc2)sc1C(=O)c1c[nH]c2ccccc12	23.3	34	38.9	27.8	21.3	46.2	27.9	31.6	25.3
N#CCCN(CCC#N)c1ccc(/C=C2\SC(=S)NC2=O)cc1	> 100	84.3	> 100	> 100	> 100	> 100	> 100	> 100	> 100
Oc1cc(O)c2c(c1)O[C@H](c1cc(O)c(O)c(O)c1)[C@@H](O)C2	> 100	51.5	> 100	58.2	37.7	34.8	76.2	40.7	44.2
O=C(N/N=C\c1cccs1)c1ccncc1	> 100	> 100		> 100	> 100	> 100	> 100	> 100	
Cc1ccc(/C(O)=C/c2nc3cccnc3[nH]c2=O)cc1	> 100	> 100	> 100	> 100	> 100	> 100	> 100	> 100	> 100
COC(=O)c1ccccc1NC(=S)NN(C)C	> 100	> 100	> 100	> 100		> 100	> 100	> 100	> 100
